Measurements as given in patent US20030044872A1, “Means of stabilizing compositions and reagents” (priority 1999, published 2003).
Like-named read-outs stand apart in the source and are kept apart here.

What was measured:
[1] = Insoluble precipitation after storage of absorbed plasma mixture with various substances (Example 4); assay type: physicochemical, bovine; conditions: storage 24 hours at 10° C. Note: key: +: Yes; −: No.
Experimental: (§1) To 100 ml of bovine plasma, barium sulfate in 20 w/v % was added. The mixture was mixed for 30 minutes at room temperature, and stirred slowly. Subsequently, the mixture was centrifuged at 5,000×g to remove the barium sulfate precipitate, and absorbed plasma was prepared by adding in the supernatant, and was mixed with 1 ml of N-ethylmaleimide, as inhibitor for Factor XIII. In other words, the composition prepared, contained at least Factor V and fibrinogen. Beside these, the absorbed plasma, without containing 1 mL of N-ethylmaleimide, was prepared and used, as a control.
(§2) Separately, one volume of the absorbed plasma and one volume of 20 mM Hepes-Tris buffer solution (pH 7.0), in which 10 mM of calcium lactate was added, were mixed together to prepare the solution. To the solution, each of substance, stated in Table 1 as below, was added so that mixture might show such a concentration as mentioned in the Table 1. With these mixtures, the inhibiting rate for factor XIII, and a producing rate of the insoluble matter after storage for 24 hours at 10° C. were measured.

factor XIII = experiment: Inhibiting for factor XIII in absorbed plasma/calcium lactate buffer mixture (Example 4); assay type: biochemical, bovine; note: key: +: Yes; −: No
Experimental: as §1, §2

[2] = Insoluble precipitation in three adsorbed plasmas with N-ethylmaleimide (Example 6); assay type: physicochemical, bovine; parameters: key: +: Insoluble precipitation; −: No insoluble precipitation; conditions: NEM (+)
Experimental: To 100 ml of bovine plasma, barium sulfate in 20 w/v % was added. The mixture was mixed for 30 minutes at room temperature, and stirred slowly. Subsequently, the mixture was centrifuged at 5,000×g to remove the barium sulfate precipitate, and absorbed plasma was prepared by adding in the supernatant, and was mixed with 1 ml of N-ethylmaleimide, as inhibitor for Factor XIII. In other words, the composition prepared, contained at least Factor V and fibrinogen. Beside these, the absorbed plasma, without containing 1 mL of N-ethylmaleimide, was prepared and used, as a control. To study the effect of the present invention, one volume of three types absorbed plasma, prepared in the Example 2 and one volume of 20 mM Hepes-Trisbuffersolution were mixed together, and visually detected both after storing 24 hours at 10° C., and right after freeze-thawed at […]. As clearly seen in the Table 3, none of the adsorbed plasma mixed with N-ethylmaleimide observed the insoluble precipitation, neither in storing at 10° C. or after freeze-thawed treatment. […] Thus, it has become clear that the insoluble precipitation can be inhibited by adding N-ethylmaleimide.

[3] = Influence of N-ethylmaleimide concentration on insoluble precipitation, visually detected (Example 5); assay type: physicochemical, bovine; parameters: key: +: Insoluble Precipitation; ±: Slightly insoluble precipitation; −: No insoluble precipitate
Experimental: To 100 ml of bovine plasma, barium sulfate in 20 w/v % was added. The mixture was mixed for 30 minutes at room temperature, and stirred slowly. Subsequently, the mixture was centrifuged at 5,000×g to remove the barium sulfate precipitate, and absorbed plasma was prepared by adding in the supernatant, and was mixed with 1 ml of N-ethylmaleimide, as inhibitor for Factor XIII. In other words, the composition prepared, contained at least Factor V and fibrinogen. Beside these, the absorbed plasma, without containing 1 mL of N-ethylmaleimide, was prepared and used, as a control. The absorbed plasma was prepared in the same manner as stated in the Example 2, except that a concentration of N-ethylmaleimide was varied. Separately, one volume of the absorbed plasma and one volume of 20 mM Hepes-Tris buffer solution (pH 7.0), in which 10 mM of calcium lactate was added, were mixed together to prepare the solution, for which a producing rate of the insoluble matter was visually detected both after storing 24 hours at 10° C., and right after freeze-thawed at −20° C. As clearly seen in the Table 2, it has been cleared that N-ethylmaleimide may inhibit insoluble precipitation even with adding 1 mM concentration, however, more preferably 1 mM to 10 mM.

[4] = test system: commercially available control plasma; experiment: Reagent performance: coagulation activity / clotting time of control plasma on blood coagulation analyzer Coagre (Example 8); assay type: biochemical; conditions: reagent with NEM added
Experimental: In order to confirm the performance of each reagent, prepared in the Example 8, the performance was evaluated using Blood coagulation analyzer, Coagre (manufactured by Shimazu, Co., Japan) by measuring clotting time with commercially available control plasma. The performance and stability of the reagent evaluated by using the reagents, prepared and preserved for several days at 10° C., to obtain plasma coagulation activity of control plasma. As clearly seen in the Table 5, clotting time was not varied even adding NEM.

[5] = Stabilizing effect of 1:1 mixtures of NEM with other inhibitors, procedures of Examples 5 to 8 (Example 9); assay type: physicochemical, bovine
Text: The procedures stated in the Examples 5 to 8 were repeatedly carried out using the mixtures of NEM with monochloroamide, acrylamide, glycinamide, and dithioprydine, as an inhibiting agent, in an amount of 1:1, as other representative examples.

[6] = substance 1 mM in absorbed plasma + Hepes-Tris/calcium lactate
[7] = mixture of NEM with the inhibitor 1:1, procedures of Examples 5 to 8

O=C(O)CI [Monoiodo acetic acid]
Precipitation ([1]; substance 1 mM): −
Inhibiting for factor XIII (factor XIII; [6]): +

CN(C)c1c([N+](=O)[O-])cc(N2C(=O)C=CC2=O)cc1[N+](=O)[O-] [N-(4-dimethylamino-3,5-dinitrophenyl) maleimide]
Precipitation ([1]; substance 1 mM): −
Inhibiting for factor XIII (factor XIII; [6]): +

CCN1C(=O)C=CC1=O [N-ethylmaleimide]
Insoluble precipitation ([2]; Adsorbed plasma 1, Storage after freeze-thawing at −20° C.): −
Insoluble precipitation ([2]; Adsorbed plasma 1, Storage at 10° C.): −
Insoluble precipitation ([2]; Adsorbed plasma 2, Storage after freeze-thawing at −20° C.): −
Insoluble precipitation ([2]; Adsorbed plasma 2, Storage at 10° C.): −
Insoluble precipitation ([2]; Adsorbed plasma 3, Storage after freeze-thawing at −20° C.): −
Insoluble precipitation ([2]; Adsorbed plasma 3, Storage at 10° C.): −
Precipitation ([1]; substance 1 mM): −
Insoluble precipitation ([3]; 0.1 mM, Bovine plasma 1, 24 hours at 10° C.): ±
Insoluble precipitation ([3]; 0.1 mM, Bovine plasma 1, freeze-thawed at −20° C.): +
Insoluble precipitation ([3]; 0.1 mM, Bovine plasma 2, 24 hours at 10° C.): ±
Insoluble precipitation ([3]; 0.1 mM, Bovine plasma 2, freeze-thawed at −20° C.): +
Insoluble precipitation ([3]; 1 mM, Bovine plasma 1, 24 hours at 10° C.): −
Insoluble precipitation ([3]; 1 mM, Bovine plasma 1, freeze-thawed at −20° C.): −
Insoluble precipitation ([3]; 1 mM, Bovine plasma 2, 24 hours at 10° C.): −
Insoluble precipitation ([3]; 1 mM, Bovine plasma 2, freeze-thawed at −20° C.): −
Insoluble precipitation ([3]; 2 mM, Bovine plasma 1, 24 hours at 10° C.): −
Insoluble precipitation ([3]; 2 mM, Bovine plasma 1, freeze-thawed at −20° C.): −
Insoluble precipitation ([3]; 2 mM, Bovine plasma 2, 24 hours at 10° C.): −
Insoluble precipitation ([3]; 2 mM, Bovine plasma 2, freeze-thawed at −20° C.): −
Insoluble precipitation ([3]; 5 mM, Bovine plasma 1, 24 hours at 10° C.): −
Insoluble precipitation ([3]; 5 mM, Bovine plasma 1, freeze-thawed at −20° C.): −
Insoluble precipitation ([3]; 5 mM, Bovine plasma 2, 24 hours at 10° C.): −
Insoluble precipitation ([3]; 5 mM, Bovine plasma 2, freeze-thawed at −20° C.): −
Insoluble precipitation ([3]; 10 mM, Bovine plasma 1, 24 hours at 10° C.): −
Insoluble precipitation ([3]; 10 mM, Bovine plasma 1, freeze-thawed at −20° C.): −
Insoluble precipitation ([3]; 10 mM, Bovine plasma 2, 24 hours at 10° C.): −
Insoluble precipitation ([3]; 10 mM, Bovine plasma 2, freeze-thawed at −20° C.): −
clotting time [4]: not varied
Inhibiting for factor XIII (factor XIII; [6]): +

[Cl-].[Na+] [NaCl]
Inhibiting for factor XIII (factor XIII; substance 10 mM in absorbed plasma + Hepes-Tris/calcium lactate): −

OC[C@H]1O[C@@](CO)(O[C@H]2O[C@H](CO)[C@@H](O)[C@H](O)[C@H]2O)[C@@H](O)[C@@H]1O [Sucrose]
Precipitation ([1]; substance 5%): +
Inhibiting for factor XIII (factor XIII; substance 5% in absorbed plasma + Hepes-Tris/calcium lactate): −

C=CC(N)=O [acrylamide]
stabilizing effect compared with NEM [5, 7]: equal or slightly inferior to NEM

NCC(N)=O [glycinamide]
stabilizing effect compared with NEM [5]: equal or slightly inferior to NEM

Bovine serum albumin: Bovine serum albumin, comparison substance added at 1%
Precipitation ([1]; substance 1%): +
Inhibiting for factor XIII (factor XIII; substance 1% in absorbed plasma + Hepes-Tris/calcium lactate): −

dithioprydine
stabilizing effect compared with NEM [5]: equal or slightly inferior to NEM

monochloroamide
stabilizing effect compared with NEM [5, 7]: equal or slightly inferior to NEM
